According to US20180186814A1, “TRICYCLIC COMPOUND HAVING SULFINYL OR SULFONYL” (Shionogi & Co., Ltd., priority 2015, published 2018):
Converted amounts (≈) assume the structure as drawn.

Tests used:
Assay type in all cases: cell-based
[1] = tested on: K. pneumoniae SR01453; test: MIC by microbroth dilution (CLSI), strain No. 3; conditions: K. pneumoniae SR01453, NDM-1, MBL-producing strain, carbapenem-resistant, cation-adjusted Mueller-Hinton broth; for MIC: Klebsiella pneumoniae, read-out: minimum inhibitory concentration (MIC), Strain No. 3
Method: (§1) The minimum inhibitory concentration (MIC) was measured by the microbroth dilution method in accordance with the procedures recommended by CLSI (Clinical and Laboratory Standards Institute) using 1×10^5 CFU/mL as an inoculum dose and a cation-adjusted Mueller-Hinton broth as a test medium.
(§2) The strains used are as described in the table below.

[2] = tested on: E. cloacae SR36276; test: MIC by microbroth dilution (CLSI), strain No. 5; conditions: E. cloacae SR36276, AmpC, highly AmpC-producing strain, ceftazidime-resistant, cefepime-sensitive, cation-adjusted Mueller-Hinton broth; for MIC: Enterobacter cloacae, read-out: minimum inhibitory concentration (MIC), Strain No. 5
Method: as §1, §2

[3] = tested on: K. pneumoniae SR01358; test: MIC by microbroth dilution (CLSI), strain No. 2; conditions: Klebsiella pneumoniae; K. pneumoniae SR01358, KPC-2; KPC-producing strain; cation-adjusted Mueller-Hinton broth; read-out: minimum inhibitory concentration (MIC), Strain No. 2
Method: as §1, §2

[4] = tested on: E. cloacae ATCC13047; test: MIC by microbroth dilution (CLSI), strain No. 1; conditions: E. cloacae ATCC13047, AmpC, ceftazidime-resistant, cefepime-sensitive, cation-adjusted Mueller-Hinton broth; for MIC: Enterobacter cloacae, read-out: minimum inhibitory concentration (MIC), Strain No. 1
Method: as §1, §2

[5] = tested on: K. pneumoniae NCTC13443; test: MIC by microbroth dilution (CLSI), strain No. 4; conditions: K. pneumoniae NCTC13443, NDM-1, MBL-producing strain, carbapenem-resistant, cation-adjusted Mueller-Hinton broth; for MIC: Klebsiella pneumoniae, read-out: minimum inhibitory concentration (MIC), Strain No. 4
Method: as §1, §2

[6] = tested on: E. coli SR09613; test: MIC by microbroth dilution (CLSI), strain No. 6; conditions: for MIC: Escherichia coli, SR09613, read-out: minimum inhibitory concentration (MIC), Strain No. 6; for minimum inhibitory concentration (MIC), Strain No. 6: E. coli SR09613, CMY-2 type, plasmid AmpC-producing strain, ceftazidime-resistant, cefepime-sensitive, cation-adjusted Mueller-Hinton broth
Method: as §1, §2

Structure (SMILES)	MIC [1] [µg/mL]	MIC [2] [µg/mL]	MIC [4] [µg/mL]	MIC [5] [µg/mL]	also measured
Nc1nc(/C(=N/OCC(=O)O)C(=O)N[C@@H]2C(=O)N3[C@@H]2[S@@+]([O-])C[C@@H]2CC(=O)O[C@@]23C(=O)O)cs1 [Compound I-001]	0.063 (≈ 0.126 µM)	0.063 (≈ 0.126 µM)	0.125 (≈ 0.249 µM)	1 (≈ 1.99 µM)	MIC [3]: 0.25 µg/mL (≈ 0.499 µM)
CC[C@H](O/N=C(\C(=O)N[C@@H]1C(=O)N2[C@@H]1[S@@+]([O-])C[C@@H]1CC(=O)O[C@@]12C(=O)O)c1csc(N)n1)C(=O)O [Compound I-009]	0.5 (≈ 0.944 µM)	0.25 (≈ 0.472 µM)	0.5 (≈ 0.944 µM)	4 (≈ 7.55 µM)	–
Nc1nc(/C(=N/OCCF)C(=O)N[C@@H]2C(=O)N3[C@@H]2[S@@+]([O-])C[C@@H]2CC(=O)O[C@@]23C(=O)O)cs1 [Compound I-010]	0.25 (≈ 0.511 µM)	1 (≈ 2.04 µM)	0.25 (≈ 0.511 µM)	8 (≈ 16.3 µM)	–
CCO/N=C(\C(=O)N[C@@H]1C(=O)N2[C@@H]1[S@@+]([O-])C[C@@H]1CC(=O)O[C@@]12C(=O)O)c1csc(N)n1 [Compound I-019]	0.5 (≈ 1.06 µM)	1 (≈ 2.12 µM)	0.5 (≈ 1.06 µM)	8 (≈ 17 µM)	–
CC(C)[C@H](O/N=C(\C(=O)N[C@@H]1C(=O)N2[C@@H]1[S@@+]([O-])C[C@@H]1CC(=O)O[C@@]12C(=O)O)c1csc(N)n1)C(=O)O [Compound I-022]	1 (≈ 1.84 µM)	0.5 (≈ 0.92 µM)	–	–	–
Nc1nc(/C(=N/O)C(=O)N[C@@H]2C(=O)N3[C@@H]2[S@@+]([O-])C[C@@H]2CC(=O)O[C@@]23C(=O)O)cs1 [Compound I-024]	2 (≈ 4.51 µM)	4 (≈ 9.02 µM)	–	–	–
Nc1nc(/C(=N/OCC(=O)O)C(=O)N[C@@H]2C(=O)N3[C@@H]2[SH](O)C[C@@H]2CC(=O)O[C@@]23C(=O)O)c(F)s1 (stereo partly shown) [Compound I-036]	–	–	–	–	minimum inhibitory concentration (MIC), Strain No. 3 [1]: 1 µg/mL (≈ 1.92 µM); minimum inhibitory concentration (MIC), Strain No. 5 [2]: 1 µg/mL (≈ 1.92 µM); minimum inhibitory concentration (MIC), Strain No. 1 [4]: 0.5 µg/mL (≈ 0.959 µM); minimum inhibitory concentration (MIC), Strain No. 4 [5]: 8 µg/mL (≈ 15.3 µM)
Nc1nc(/C(=N/OCc2ccncc2)C(=O)N[C@@H]2C(=O)N3[C@@H]2[S@@+]([O-])C[C@@H]2CC(=O)O[C@@]23C(=O)O)cs1 [Compound I-040]	–	–	–	–	MIC [6]: 4 µg/mL (≈ 7.48 µM)
C[n+]1cccc(CO/N=C(\C(=O)N[C@@H]2C(=O)N3[C@@H]2[S@@+]([O-])C[C@@H]2CC(=O)O[C@@]23C(=O)[O-])c2csc(N)n2)c1 [Compound I-043]	2 (≈ 3.65 µM)	–	–	–	MIC [6]: 2 µg/mL (≈ 3.65 µM)
CC(CO)(CO)O/N=C(\C(=O)N[C@@H]1C(=O)N2[C@@H]1[S@@+]([O-])C[C@@H]1CC(=O)O[C@@]12C(=O)O)c1csc(N)n1 [Compound I-045]	0.25 (≈ 0.47 µM)	2 (≈ 3.76 µM)	0.5 (≈ 0.941 µM)	8 (≈ 15.1 µM)	MIC [6]: 0.25 µg/mL (≈ 0.47 µM)
Nc1nc(/C(=N/OCC(=O)O)C(=O)N[C@@H]2C(=O)N3[C@@H]2[S@@+]([O-])C[C@@H]2CC(=O)O[C@@]23c2nnn[nH]2)cs1 [Compound I-046]	0.5 (≈ 0.952 µM)	0.5 (≈ 0.952 µM)	1 (≈ 1.9 µM)	–	–
CC(=O)NCCO/N=C(\C(=O)N[C@@H]1C(=O)N2[C@@H]1[S@@+]([O-])C[C@@H]1CC(=O)O[C@@]12C(=O)O)c1csc(N)n1 [Compound I-054]	–	–	–	–	minimum inhibitory concentration (MIC), Strain No. 3 [1]: 0.5 µg/mL (≈ 0.946 µM); minimum inhibitory concentration (MIC), Strain No. 5 [2]: 4 µg/mL (≈ 7.57 µM); minimum inhibitory concentration (MIC), Strain No. 1 [4]: 1 µg/mL (≈ 1.89 µM); minimum inhibitory concentration (MIC), Strain No. 6 [6]: 0.5 µg/mL (≈ 0.946 µM)
Nc1nc(/C(=N/OCc2cc(O)no2)C(=O)N[C@@H]2C(=O)N3[C@@H]2[S@H](O)C[C@@H]2CC(=O)O[C@@]23C(=O)[O-])cs1.[Na+] [Compound I-063]	–	–	–	–	minimum inhibitory concentration (MIC), Strain No. 6 [6]: 4 µg/mL
COC(=O)NCCO/N=C(\C(=O)N[C@@H]1C(=O)N2[C@@H]1[S@@+]([O-])C[C@@H]1CC(=O)O[C@@]12C(=O)[O-])c1csc(N)n1.[Na+] [Compound I-064]	2	–	–	–	–
CCO/N=C(\C(=O)N[C@@H]1C(=O)N2[C@@H]1S(=O)(=O)C[C@@H]1CC(=O)O[C@@]12C(=O)[O-])c1csc(N)n1.[Na+] [Compound I-071]	1	4	2	8	–
